Results on 25 molecules are retold here after patent publication US20130252890A1, “6,7-DIHYDRO-5H-BENZO[7]ANNULENE DERIVATIVES, PROCESS FOR PREPARATION THEREOF, PHARMACEUTICAL PREPARATIONS COMPRISING THEM, AND THE USE THEREOF FOR PRODUCTION OF MEDICAMENTS” (BAYER INTELLECTUAL PROPERTY GMBH, priority 2010, published 2013).

The structures appear in SMILES notation. pIC50: −log10 of the molar value.

For the assay, the target named is T1, oestrogen receptor (ER) (Homo sapiens, UniProt P03372).
T1 construct: These MVLN cells express, along with the functional oestrogen receptor (ER), a reporter construct; endogenous in cells; host or cells: MVLN cells (MCF7 derivative carrying a luciferase reporter construct)
T1 sequence (P03372 1-595): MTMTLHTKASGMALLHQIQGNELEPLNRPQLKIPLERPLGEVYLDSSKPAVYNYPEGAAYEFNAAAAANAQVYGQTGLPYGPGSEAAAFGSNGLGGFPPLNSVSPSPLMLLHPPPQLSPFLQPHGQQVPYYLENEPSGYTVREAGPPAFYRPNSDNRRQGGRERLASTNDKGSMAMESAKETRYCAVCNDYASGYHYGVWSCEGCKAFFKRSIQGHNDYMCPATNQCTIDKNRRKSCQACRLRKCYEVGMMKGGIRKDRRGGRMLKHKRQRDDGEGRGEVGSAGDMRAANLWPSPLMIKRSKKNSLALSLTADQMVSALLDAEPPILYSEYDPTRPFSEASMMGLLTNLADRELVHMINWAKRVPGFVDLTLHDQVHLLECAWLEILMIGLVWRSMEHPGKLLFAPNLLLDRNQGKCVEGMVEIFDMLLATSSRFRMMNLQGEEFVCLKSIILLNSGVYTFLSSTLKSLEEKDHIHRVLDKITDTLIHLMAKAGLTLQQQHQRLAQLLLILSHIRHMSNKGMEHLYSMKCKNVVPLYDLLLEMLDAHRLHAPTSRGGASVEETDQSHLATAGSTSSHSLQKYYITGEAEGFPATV
Nature of the assay: Anti-oestrogenic action in MVLN cells (inhibition of estradiol-induced luciferase). It counts as cell-based. The note with it: inhibition of estradiol-induced luciferase signal, value of Ex. 44 is a mean value, read-out: Antioestrogenic action in vitro: MVLN transactivation antagonism IC50. Summed up:
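MVLN cells, MCF7 breast cancer derivatives carrying functional ER plus an ER-activated luciferase reporter, were treated with compounds in the presence of estradiol. Anti-oestrogenic activity taken as inhibition of the estradiol-induced luciferase signal.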
Regarding `C[C@H](O)CN(CCCCCCC1=C(c2ccc(F)cc2)CCCc2cc(O)ccc21)CCCCS(=O)(=O)CCCC(F)(F)F` [Example 93, 8-(4-Fluorophenyl)-9-[6-([(2S)-2-hydroxypropyl]{4-[(4,4,4-trifluorobutyl)sulphonyl]butyl}amino)hexyl]-6,7-dihydro-5H-benzo[7]annulen-3-ol], the pIC50 was 8.30. With `O=C(O)CN(CCCCCCC1=C(c2ccc(F)cc2)CCCc2cc(O)ccc21)CCCCS(=O)(=O)CCCC(F)(F)F` [Example 94, N-{6-[8-(4-Fluorophenyl)-3-hydroxy-6,7-dihydro-5H-benzo[7]annulen-9-yl]hexyl}-N-{4-[(4,4,4-trifluorobutyl)sulphonyl]butyl}glycine], the pIC50 is 7.68. The result for `O=C(O)CCN(CCCCCCC1=C(c2ccc(F)cc2)CCCc2cc(O)ccc21)CCCCS(=O)(=O)CCCC(F)(F)F` [Example 95, N-{6-[8-(4-Fluorophenyl)-3-hydroxy-6,7-dihydro-5H-benzo[7]annulen-9-yl]hexyl}-N-{4-[(4,4,4-trifluorobutyl)sulphonyl]butyl}-beta-alanine] reads 7.72. As for `O=C(O)CCCN(CCCCCCC1=C(c2ccc(F)cc2)CCCc2cc(O)ccc21)CCCCS(=O)(=O)CCCC(F)(F)F` [Example 96, 4-({6-[8-(4-Fluorophenyl)-3-hydroxy-6,7-dihydro-5H-benzo[7]annulen-9-yl]hexyl}{4-[(4,4,4-trifluorobutyl)sulphonyl]butyl}amino)butanoic acid], the negative-log IC50 (pIC50) was 7.68. Regarding `O=S(=O)(CCCN(CCO)CCCCCCC1=C(c2ccc(F)cc2)CCCc2cc(O)ccc21)CCCC(F)(F)F` [Example 97, 8-(4-Fluorophenyl)-9-{6-[(2-hydroxyethyl){3-[(4,4,4-trifluorobutyl)sulphonyl]propyl}amino]hexyl}-6,7-dihydro-5H-benzo[7]annulen-3-ol], the pIC50 is 8.15. Take `C[C@@H](O)CN(CCCCCCC1=C(c2ccc(F)cc2)CCCc2cc(O)ccc21)CCCCS(=O)(=O)CCCC(F)(F)F` [Example 98]: the pIC50 is 8.22. Then `CN(CCCCCCC1=C(c2ccc(F)cc2)CCCc2cc(O)c(F)cc21)CCCS(=O)(=O)CCCC(F)(F)C(F)(F)F` [Example 99, 2-Fluoro-8-(4-fluorophenyl)-9-[6-(methyl{3-[(4,4,5,5,5-pentafluoropentyl)sulphonyl]propyl}amino)hexyl]-6,7-dihydro-5H-benzo[7]annulen-3-ol], with 7.82.

As to `O=S(=O)(CCCN(CCO)CCCCCCC1=C(c2ccc(F)cc2)CCCc2cc(O)c(F)cc21)CCCC(F)(F)C(F)(F)F` [Example 100, 2-Fluoro-8-(4-fluorophenyl)-9-{6-[(2-hydroxyethyl){3-[(4,4,5,5,5-pentafluoropentyl)sulphonyl]propyl}amino]hexyl}-6,7-dihydro-5H-benzo[7]annulen-3-ol], the pIC50 is 8.05. Then `CN(CCCCCCC1=C(c2ccc(F)cc2)CCCc2cc(O)c(F)cc21)CCCCS(=O)(=O)CCCC(F)(F)F` [Example 101, 2-Fluoro-8-(4-fluorophenyl)-9-[6-(methyl{4-[(4,4,4-trifluorobutyl)sulphonyl]butyl}amino)hexyl]-6,7-dihydro-5H-benzo[7]annulen-3-ol], with 8.22. The result for `CN(CCCCCCC1=C(c2ccc(F)cc2)CCCc2cc(O)c(F)cc21)CCCS(=O)(=O)CCCCC(F)(F)F` [Example 102, 2-Fluoro-8-(4-fluorophenyl)-9-[6-(methyl{3-[(5,5,5-trifluoropentyl)sulphonyl]propyl}amino)hexyl]-6,7-dihydro-5H-benzo[7]annulen-3-ol] reads 8.00; that for `O=S(=O)(CCCN(CCO)CCCCCCC1=C(c2ccc(F)cc2)CCCc2cc(O)c(F)cc21)CCCC(F)(F)F` [Example 103, 2-Fluoro-8-(4-fluorophenyl)-9-{6-[(2-hydroxyethyl){3-[(4,4,4-trifluorobutyl)sulphonyl]propyl}amino]hexyl}-6,7-dihydro-5H-benzo[7]annulen-3-ol], 8.30. Then `O=S(=O)(CCCCN(CCO)CCCCCCC1=C(c2ccc(F)cc2)CCCc2cc(O)c(F)cc21)CCCC(F)(F)F` [Example 104, 2-Fluoro-8-(4-fluorophenyl)-9-{6-[(2-hydroxyethyl){4-[(4,4,4-trifluorobutyl)sulphonyl]butyl}amino]hexyl}-6,7-dihydro-5H-benzo[7]annulen-3-ol], with 8.15. In the case of `CN(CCCCCCC1=C(c2ccc(F)cc2)CCCc2cc(O)c(F)cc21)CCCCS(=O)(=O)CCCC(F)(F)C(F)(F)F` [Example 105, 2-Fluoro-8-(4-fluorophenyl)-9-[6-(methyl{4-[(4,4,5,5,5-pentafluoropentyl)sulphonyl]butyl}amino)hexyl]-6,7-dihydro-5H-benzo[7]annulen-3-ol], the negative-log IC50 (pIC50) was 7.92. Then `CN(CCCCCCC1=C(c2ccc(F)cc2)CCCc2cc(O)c(F)cc21)CCCCS(=O)(=O)CCC(F)(F)F` [Example 106, 2-Fluoro-8-(4-fluorophenyl)-9-[6-(methyl{4-[(3,3,3-trifluoropropyl)sulphonyl]butyl}amino)hexyl]-6,7-dihydro-5H-benzo[7]annulen-3-ol], with 8.00. Consider `CN(CCCCCCC1=C(c2ccc(F)cc2)CCCc2cc(O)c(F)cc21)CCCCCS(=O)(=O)CCC(F)(F)F` [Example 107, 2-Fluoro-8-(4-fluorophenyl)-9-[6-(methyl{5-[(3,3,3-trifluoropropyl)sulphonyl]pentyl}amino)hexyl]-6,7-dihydro-5H-benzo[7]annulen-3-ol], for which the pIC50 was 6.91. As to `O=S(=O)(CCCN(CCO)CCCCCCC1=C(c2ccc(F)cc2)CCCc2cc(O)ccc21)CCC(F)(C(F)(F)F)C(F)(F)F` [Example 108, 8-(4-Fluorophenyl)-9-{6-[(2-hydroxyethyl)(3-{[3,4,4,4-tetrafluoro-3-(trifluoromethyl)butyl]sulphonyl}propyl)amino]hexyl}-6,7-dihydro-5H-benzo[7]annulen-3-ol], the pIC50 was 7.16. Take `O=S(=O)(CCCCN(CCO)CCCCCCC1=C(c2ccc(F)cc2)CCCc2cc(O)ccc21)CCC(F)(C(F)(F)F)C(F)(F)F` [Example 109, 8-(4-Fluorophenyl)-9-{6-[(2-hydroxyethyl)(4-{[3,4,4,4-tetrafluoro-3-(trifluoromethyl)butyl]sulphonyl}butyl)amino]hexyl}-6,7-dihydro-5H-benzo[7]annulen-3-ol]: the negative logarithm of the IC50 (pIC50) is 7.59. Then `CN(CCCCCCC1=C(c2ccc(F)cc2)CCCc2cc(O)ccc21)CCCS(=O)(=O)CCC(F)(C(F)(F)F)C(F)(F)F` [Example 110, 8-(4-Fluorophenyl)-9-{6-[methyl(3-{[3,4,4,4-tetrafluoro-3-(trifluoromethyl)butyl]sulphonyl}propyl)amino]hexyl}-6,7-dihydro-5H-benzo[7]annulen-3-ol], with 7.14; and `CN(CCCCCCC1=C(c2ccc(F)cc2)CCCc2cc(O)ccc21)CCCCS(=O)(=O)CCC(F)(C(F)(F)F)C(F)(F)F` [Example 111, 8-(4-Fluorophenyl)-9-{6-[methyl(4-{[3,4,4,4-tetrafluoro-3-(trifluoromethyl)butyl]sulphonyl}butyl)amino]hexyl}-6,7-dihydro-5H-benzo[7]annulen-3-ol], with 7.48; and `O=S(=O)(CCCCC(F)(F)F)CCCNCCCCCCC1=C(c2ccc(F)cc2)CCCc2cc(O)ccc21` [Example 112, 8-(4-Fluorophenyl)-9-[6-({3-[(5,5,5-trifluoropentyl)sulphonyl]propyl}amino)hexyl]-6,7-dihydro-5H-benzo[7]annulen-3-ol], with 8.15.

On to `O=S(=O)(CCCNCCCCCCC1=C(c2ccc(F)cc2)CCCc2cc(O)ccc21)CCCC(F)(F)C(F)(F)F` [Example 113, 8-(4-Fluorophenyl)-9-[6-({3-[(4,4,5,5,5-pentafluoropentyl)sulphonyl]propyl}amino)hexyl]-6,7-dihydro-5H-benzo[7]annulen-3-ol], for which the pIC50 is 7.74. Then `CC(C)(O)CN(CCCCCCC1=C(c2ccc(F)cc2)CCCc2cc(O)ccc21)CCCS(=O)(=O)CCC(F)(F)F` [Example 119, 8-(4-fluorophenyl)-9-{6-[(2-hydroxy-2-methylpropyl){3-[(3,3,3-trifluoropropyl)sulphonyl]propyl}amino]hexyl}-6,7-dihydro-5H-benzo[7]annulen-3-ol], with 7.10; and `CC(C)(O)CN(CCCCCCC1=C(c2ccc(F)cc2)CCCc2cc(O)ccc21)CCC[S+]([O-])CCC(F)(F)F` (stereo not shown) [Example 120, 8-(4-fluorophenyl)-9-{6-[(2-hydroxy-2-methylpropyl){3-[(3,3,3-trifluoropropyl)sulphinyl]propyl}amino)hexyl}-6,7-dihydro-5H-benzo[7]annulen-3-ol], with 7.25. Consider `CN(CCCCCCC1=C(c2ccc(F)cc2)CCCc2cc(O)ccc21)CCCS(=O)(=O)C1CCC(F)(F)CC1` [Example 121, 9-{6-[{3-[(4,4-difluorocyclohexyl)sulphonyl]propyl}(methyl)amino]hexyl}-8-(4-fluorophenyl)-6,7-dihydro-5H-benzo[7]annulen-3-ol], for which the pIC50 was 7.39.

Consider `CN(CCCCCCC1=C(c2ccccc2F)CCCc2cc(O)ccc21)CCCS(=O)(=O)CCCC(F)(F)C(F)(F)F` [Example 126], for which the negative-log IC50 (pIC50) was 8.05.
